# Test results as given in patent publication US20250313528A1, “NOVEL COMPOUND AND PHARMACEUTICAL COMPOSITION FOR PREVENTING OR TREATING PULMONARY FIBROSIS COMPRISING SAME AS ACTIVE INGREDIENT” (GIL MEDICAL CENTER, priority 2022, published 2025).
# Legend:
# MRC-5 cells = experiment: Wound healing assay, MRC-5; format: cell-based, human; settings: MRC-5, TGF-β1 treatment, 24 hours, FIG. 6
# Procedure: (§1) The effects of Compound 1 and Compound 2, selected in Example 3, on cell migration (wound healing) in MRC-5 and DHLF-IPF cells were examined.
# (§2) Specifically, cells (1×10^5 cells/well) were seeded in a 60 mm dish to achieve approximately 90% confluency and cultured for 24 hours. Subsequently, a straight line was scratched on the bottom with a 200 μL pipette tip, and the detached cells were removed by washing once with Dulbecco's Phosphate-Buffered Saline (DPBS). The wound was photographed under a microscope, and treatments with TGF-β1 alone, TGF-β1+SFN, TGF-β1+GSF-016, and TGF-1+GSF-018 were applied and cultured for approximately 24 hours, after which the wound was re-photographed. The images taken at 24 hours of culture were analyzed using the Image J (Fiji package) software to measure the distance between cells, and the relative migration was expressed as a percentage (%) compared to the control group.
# [1] = tested on: fibronectin, collagen 1, α-SMA; experiment: Immunohistochemistry of fibrosis-related proteins in lung tissue, BLM model; format: in vivo, C57BL/6N mice; settings: BLM mice; for expression of α-SMA, collagen, and fibronectin in lung tissue (IHC): compared to the BLM group
# Procedure: (§3) Specifically, 7-week-old C57BL/6N mice were exposed to BLM (3-5 units/kg) via the airway. The compounds were administered orally at doses of 200 μg/kg and 500 μg/kg for Compound 1, and 100 μg/kg and 200 μg/kg for Compound 2, three times a week for three weeks starting the day after BLM exposure. Body weight gain was periodically measured during the experimental period, and lung weight was measured at the end of the experiment.
# Specifically, the excised lung tissue was embedded in paraffin and sectioned into 4 μm slices using a microtome. These tissue sections were used for H&E, MT stain, and Immunohistochemistry (IHC). Each experiment was conducted by deparaffinizing and rehydrating the sections using xylene and ethanol. For IHC, the LSAB2 system HRP (DAKO, Carpinteria, CA, USA) kit was used. Antibody retrieval was performed in 0.1 mM citric acid (pH 6), and the experiment was conducted according to the provided instructions. The sections were blocked with blocking buffer at room temperature for 1 hour, then incubated overnight at 4° C. with primary antibodies (fibronectin, collagen 1, α-SMA). After blocking with secondary antibodies at room temperature for 1 hour, the Streptavidin-HRP system was used for 10 minutes, followed by exposure to DAB solution, hematoxylin staining, dehydration, clearing, and mounting with Canada balsam. The stained slides were examined under an optical microscope (BK51, Olympus, Japan). The staining results were quantified using the Image J program.
# To examine the key factors involved in fibrosis, immunohistochemistry (IHC) was performed using the same method as in Example 6-3.
# TGF-β1 signaling pathway = experiment: Western blotting of proteins related to TGF-β1 signaling pathway in DHLF-IPF; format: cell-based, human; settings: for expression level of Rock protein / expression levels of MRT/SRF in the cytoplasm and nucleus: increased by TGF-β1 treatment
# Procedure: Specifically, to extract fibronectin and α-SMA proteins, the cells were washed once with cold PBS and then RIPA buffer (150 mM NaCl, 0.5% Triton X-100, 50 mM Tris-HCl, pH 7.4, 25 mM NaF, 20 mM EGTA), which was added with a protease inhibitor cocktail, was added thereto to lyse the cells. Then, the proteins were quantified using a BCA protein assay kit. All protein samples were subjected to electrophoresis at 10 μg on 8% to 10% PAGE gels and then transferred to 0.2 μm PVDF membranes (EMD Millipore, MA, USA). The membranes to which the protein was transferred were blocked with 5% BSA or 5% skim milk for 1 hour, and then primary antibodies were added thereto and incubated overnight at 4° C. The following day, the membranes were washed three times with PBST, and then HRP-conjugated secondary antibodies were added and reacted at room temperature for 1 hour. The PVDF membranes prepared through such procedures were smeared with ECL (Luminata™ Crescendo, EMD Millipore) and exposed to a fluorescence reader to confirm the level of protein expression.
# The TGF-β1 signaling pathway can be activated through both Smad-dependent and Smad-independent pathways. The TGF-β/Smad signaling, which is a Smad-dependent pathway, is a crucial pathway that regulates the synthesis of extracellular matrix components. The Smad-independent (TGF-β/non-Smad) pathway is influenced by PI3K/AKT/mTOR and MAPK (JNK, ERK, p38), which are known to be involved in cell proliferation and growth. Based on this mechanism, the protein expression related to the TGF-β1 signaling pathway was comparatively analyzed using the same Western blotting method conducted in Example 2.
# DHLF-IPF cells = experiment: Wound healing assay, DHLF-IPF; format: cell-based, human; settings: TGF-β1 treatment, 24 hours, FIG. 6
# Procedure: as §1, §2
# [2] = tested on: bleomycin (BLM)-induced pulmonary fibrosis animal models; experiment: Hydroxyproline quantification in lung tissue of BLM model; format: in vivo, C57BL/6N mice; settings: BLM mice, compared to the BLM group
# Procedure: as §3
# Specifically, homogenized lung tissue was placed in 1.5 mL tubes in similar amounts to prevent thawing, and 100 μL of 12 M hydrochloric acid was added for hydrolysis at 120° C. for 3 hours. After centrifugation at 10,000×g for 5 minutes, the supernatant was transferred to a new tube, and 10 μL of the sample was transferred to a 96-well plate and evaporated at 60° C. Subsequently, 100 μL of chloramine T reagent/oxidation buffer mixture was added to each well, followed by 100 μL of para-dimethylaminobenzaldehyde reagent, and reacted at 60° C. for 90 minutes. Absorbance was measured at 540 nm, and the content was determined using a standard calibration curve prepared in the same manner.
Compound,cell migration (wound healing) (MRC-5 cells),concentration with the best inhibitory effect on weight recovery and related protein expression ([1]; 200 vs 500 μg/kg) [µg/kg],"expression of α-SMA, collagen, and fibronectin in lung tissue (IHC) [1]",activity of p-AKT (TGF-β1 signaling pathway; TGF-β1),activity of p-p38 (TGF-β1 signaling pathway; TGF-β1),phosphorylation of Smad-2 (TGF-β1 signaling pathway; TGF-β1),phosphorylation of Smad-7 (TGF-β1 signaling pathway; TGF-β1),expression level of Rock protein (TGF-β1 signaling pathway),expression levels of MRT/SRF in the cytoplasm and nucleus (TGF-β1 signaling pathway),cell migration (wound healing) (DHLF-IPF cells),hydroxyproline content in lung tissue ([2]; 200 μg/kg orally),activity of p-ERK (TGF-β1 signaling pathway; TGF-β1),activity of p-JNK (TGF-β1 signaling pathway; TGF-β1),phosphorylation of Smad-3 (TGF-β1 signaling pathway; TGF-β1),hydroxyproline content in lung tissue ([2]; 100 μg/kg orally)
CCOC(=O)C(CSC(=S)NCCCC[S+](C)[O-])NC(C)=O (stereo not shown) [Compound 1],significantly inhibited in a dose-dependent manner,200,significant reduction,significantly reducing the activity,significantly reducing the activity,inhibited,increased,significantly reduced,significantly reduced,significantly inhibited in a dose-dependent manner,reduced,,,,
C=CCOC(=O)C(CSC(=S)NCCCC[S+](C)[O-])NC(C)=O (stereo not shown) [Compound 2],significantly inhibited in a dose-dependent manner,,significant reduction in the BLM+GSF-018 group in a dose-dependent manner,significantly reduced the activity,reducing the activity,inhibited,increased,significantly reduced,significantly reduced,significantly inhibited in a dose-dependent manner,significant reductions,reducing the activity,reducing the activity,inhibited,significant reductions
